“Also recorded” adds a separate entry of the source.
Legend:
[1] = test system: T. b. brucei TREU 667; experiment: CNS model, T. b. brucei TREU 667 infection in mice (Table 4); format: in vivo, Trypanosoma brucei brucei (in Swiss-Webster mice); settings: for efficacy in CNS model in words: TREU 667
Text: (§1) T. b. brucei EATRO 110 isolate was maintained as described (Bacchi, C. J., H. C. Nathan, S. H. Hutner, P. P. McCann and A. Sjoerdsma; Polyamine metabolism: a potential chemotherapeutic target in trypanosomes. Science 210: 332-334, 1980). It produces an acute, rapidly fatal parasitemia which is lethal to mice 3-5 days after inoculation. Two T. B. brucei strains, TREU 667 and LUMP 1001 developed by Jennings and coworkers (Jennings, F. W., D. D. Whitelaw and G. M. Urquhart; The relationship between duration of infection with Trypanosoma brucei in mice and the efficacy of chemotherapy. Parasitology 75: 143-153, 1977/Jennings, F. W. and G. D. Gray; Relapsed parasitemia following chemotherapy of chronic T. brucei infections in mice and its relation to cerebral trypanosomes; Contr. Microbiol. Immunol. 7 147-154, 1983) were used as CNS models. Both produce infections which are refractory to Berenil® (diminazene aceturate) and develop within 21 days after inoculation. They are not usually fatal until >40 days after inoculation. LUMP 1001 causes a more virulent CNS infection than TREU 667, and is regarded as more difficult to cure (Jennings, F. W. and G. D. Gray. Relapsed parasitemia following chemotherapy of chronic T. brucei infections in mice and its relation to cerebral trypanosomes. Contr. Microbiol. Immunol. 7 147-154, 1983).
The models for […] nervous system infections used TREU 667 and LUMP 1001 strains which were stored frozen and passaged once in rats before infection of mice. Maintenance and use of these screens were as described (Clarkson, A. B. Jr., C. J. Bacchi, G. H. Mellon, H. C. Nathan, P. P. McCann and A. Sjoerdsma. Efficacy of DFMO+blemoycin in a mouse model of central nervous system African trypanosomiasis. Proc. Natl. Acad. Sci. USA. 80: 5729-5733, 1983/Clarkson, A. B. Jr., E. J. Biene, C. J. Bacchi, P. P. McCann, S. H. Hutner and A. Sjoerdsma. New drug combination for experimental late stage African trypanosomiasis: DFMO with suramin. Am. J. Trop. Med. Hyg. 33: 1073-1077, 1984/Dube, D. K., G. Mpimbaza, A. C. Allison, E. Lederer and L. Rovis. Antitrypanosomal activity of sinefungin, Am. J. Trop. Med. Hyg. 32: 31-33, 1983/Fish, W. R., J. J. Marr, R. L. Berens, D. L. Looker, D. J. Nelson, S. LaFon and A. E. Balber. Inosine analogs as chemotherapeutic agents for African trypanosomes: metabolism in trypanosomes and efficacy in tissue culture. Anti-microb. Ag. Chemother. 27: 33-36, 1985/Clazer, R. I., and L. S. Lloyd. Effects of 8-azaadenosine and formycin on cell lethality and the synthesis and methylation of nucleic acids in human colon carcinoma cells in culture. Biochem. Pharmacol. 31: 3207-3214, 1982/Bacchi, C. J., H. C. Nathan, A. B. Clarkson, Jr., E. J. Bienen, A. J. Bitonti, P. P. McCann and A. Sjoerdsma. Activity of the ornithine decarboxylase inhibitors DL-α-difluoromethylornithine and monofluormethyldehydroornithine methylester alone and in combination with suramin against Trypanosoma brucei brucei central nervous system models, Am. J. Trop. Med. Hyg. (in press)). Briefly, groups of 100-120 mice were infected and the infections allowed to develop until day 21, when the animals were separated into groups of 10 and therapy commenced. Controls were treated with Berenil (40 mg/kg) on day 21. These always relapsed 40-70 days after treatment. Parasitemia was followed by examining tail vein blood smears once weekly. Animals which had relapsed were removed from cages. TREU 667 infections were followed >225 days after inoculation and LUMP 1001 were followed >280 days, as determined by the relapse pattern in previous work (Bacchi, C. J., H. C. Nathan, A. B. Clarkson, Jr., E. J. Bienen, A. J. Bitonti, P. P. McCann and A. Sjoerdsma. Activity of the ornithine decarboxylase inhibitors DL-α-difluoromethylornithine and monofluormethyldehydroornithine methylester alone and in combination with suramin against Trypanosoma brucei brucei central nervous system models. Am. J. Trop. Med. Hyg. (in press)). […]

[2] = test system: T. b. brucei EATRO 110; experiment: Drug screen, acute EATRO 110 mouse infection (Tables 1, 3); format: in vivo, Trypanosoma brucei brucei (in Swiss-Webster mice)
Text: as §1
Swiss-Webster (25-30 g) mice were used throughout. In the EATRO 110 model, groups of 100 mice were infected (10^5 trypanosomes/mouse) and the infection was allowed to develop 24 hours before commencing therapy. Animals were divided into groups of 5 before treatment. Cured animals survived >30 days beyond deaths of controls. All compounds were administered by i.p. injection.
Other methods as in Table 1.

[3] = Table 1, 5 mg/kg i.p. (9-DINO, sinefungin once daily for 3 days)
[4] = Table 1, 10 mg/kg i.p. (9-DINO, sinefungin once daily for 3 days)
[5] = Table 1, 25 mg/kg i.p. (9-DINO, sinefungin once daily for 3 days)
[6] = Table 1, 50 mg/kg i.p. (9-DINO, sinefungin once daily for 3 days)
[7] = Table 1, 100 mg/kg i.p. (9-DINO, sinefungin once daily for 3 days)
[8] = Table 1, 200 mg/kg i.p. once daily for 3 days
[9] = Table 1, 400 mg/kg i.p. once daily for 3 days
[10] = Table 3, 5 mg/kg i.p. once daily for 3 days
[11] = Table 3, 10 mg/kg i.p. once daily for 3 days
[12] = Table 3, 25 mg/kg i.p. once daily for 3 days
[13] = Table 1, 0.5 mg/kg i.p. once daily for 3 days
[14] = Table 1, 1 mg/kg i.p. once daily for 3 days
[15] = Table 1, 2.5 mg/kg i.p. (9-DINO, sinefungin once daily for 3 days)
[16] = Table 3, 0.5 mg/kg i.p. once daily for 3 days
[17] = Table 3, 1.0 mg/kg i.p. once daily for 3 days

O=c1[nH]cnc2c([C@@H]3O[C@H](CO)[C@@H](O)[C@H]3O)c[nH]c12 [9-DINO, 7-beta-D-ribofuranosyl-4-oxo-3H, 5H-pyrrolo (3,2-d) pyrimidine]
# Cured/Total ([1]; 5 mg/kg i.p., 7 days): 0/5
% Cured ([1]; 5 mg/kg i.p., 7 days): 0%
Avg. Day of Relapse (Range) ([1]; 5 mg/kg i.p., 7 days): 41 days
# Cured/Total ([1]; 10 mg/kg i.p., 7 days): 0/5
% Cured ([1]; 10 mg/kg i.p., 7 days): 0%
Avg. Day of Relapse (Range) ([1]; 10 mg/kg i.p., 7 days): 41 days
# Cured/Total ([1]; 25 mg/kg i.p., 7 days): 1/5
% Cured ([1]; 25 mg/kg i.p., 7 days): 20%
Avg. Day of Relapse (Range) ([1]; 25 mg/kg i.p., 7 days): 60 (41-135) Day
# Cured/Total ([1]; 100 mg/kg i.p., 7 days): 0/20
% Cured ([1]; 100 mg/kg i.p., 7 days): 0%
Avg. Day of Relapse (Range) ([1]; 100 mg/kg i.p., 7 days): 49 (35-58) Day
# Cured/Total ([1]; 250 mg/kg i.p., 7 days): 3/10
% Cured ([1]; 250 mg/kg i.p., 7 days): 30%
Avg. Day of Relapse (Range) ([1]; 250 mg/kg i.p., 7 days): 68 (45-86) Day
efficacy in CNS model in words [1]: did not cure CNS infections
cure rate ([2]; 50-100 mg/kg, EATRO 110): 100%
curative / active dose range ([2]; EATRO 110, text): 25 to 200 mg/kg
# Cured/Total [2, 3]: 0/5
% Cured [2, 3]: 0%
# Cured/Total [2, 4]: 2/30
% Cured [2, 4]: 7%
# Cured/Total [2, 5]: 15/20
% Cured [2, 5]: 50%
# Cured/Total [2, 6]: 4/5
% Cured [2, 6]: 80%
# Cured/Total [2, 7]: 5/5
% Cured [2, 7]: 100%
# Cured/Total [2, 8]: 5/5
% Cured [2, 8]: 100%
# Cured/Total [2, 9]: 3/5
% Cured [2, 9]: 60%
# Cured/Total [2, 10]: 0/5
% Cured [2, 10]: 0%
# Cured/Total [2, 11]: 2/30
% Cured [2, 11]: 7%
# Cured/Total [2, 12]: 15/20
% Cured [2, 12]: 75%
activity in the acute (short term) EATRO 110 model, in words ([2]; listed as 9-deazainosine): greatest activity; also recorded: most active analog of the two
activity in the acute (short term) EATRO 110 model, in words ([2]; text summary): greatest activity; also recorded: highly effective; also recorded: active against acute models; also recorded: more effective than sinefungin, allopurinol and allopurinol riboside
activity in the acute (short term) EATRO 110 model, in words ([2]; text summary, listed as 9DINO): active against an acute infection

Nc1ncnc2c1ncn2[C@@H]1O[C@H](C[C@@H](N)CC[C@H](N)C(=O)O)[C@@H](O)[C@H]1O [Sinefungin, 6,9-Diamino-1-(6-amino-9H-purin-9-yl)-1,5,6,7,8,9-hexadeoxy-beta-D-ribo-decofuranuronic acid]
# Cured/Total ([1]; 2.5 mg/kg i.p., 4 days): 0/18
% Cured ([1]; 2.5 mg/kg i.p., 4 days): 0%
Avg. Day of Relapse (Range) ([1]; 2.5 mg/kg i.p., 4 days): 39 (35-56) Day
# Cured/Total ([1]; 5 mg/kg i.p., 4 days): 0/10
% Cured ([1]; 5 mg/kg i.p., 4 days): 0%
Avg. Day of Relapse (Range) ([1]; 5 mg/kg i.p., 4 days): 41 (35-46) Day
# Cured/Total ([1]; 10 mg/kg i.p., 3 days): 0/10
% Cured ([1]; 10 mg/kg i.p., 3 days): 0%
Avg. Day of Relapse (Range) ([1]; 10 mg/kg i.p., 3 days): 38 (35-46) Day
# Cured/Total ([1]; 10 mg/kg i.p., 7 days): 6/10
% Cured ([1]; 10 mg/kg i.p., 7 days): 60%
Avg. Day of Relapse (Range) ([1]; 10 mg/kg i.p., 7 days): 124 (35-209) Day
efficacy in CNS model in words [1]: did not produce complete cures
% active ([2]; 25 mg/kg, single dose): 80%
# Cured/Total [2, 13]: 0/15
% Cured [2, 13]: 0%
# Cured/Total [2, 14]: 0/20
% Cured [2, 14]: 0%
# Cured/Total [2, 15]: 0/5
% Cured [2, 15]: 0%
# Cured/Total [2, 3]: 9/15
% Cured [2, 3]: 60%
# Cured/Total [2, 4]: 8/15
% Cured [2, 4]: 53%
# Cured/Total [2, 5]: 4/5
% Cured [2, 5]: 80%
# Cured/Total [2, 16]: 0/15
% Cured [2, 16]: 0%
# Cured/Total [2, 17]: 0/20
% Cured [2, 17]: 0%
# Cured/Total [2, 10]: 9/15
% Cured [2, 10]: 60%
# Cured/Total [2, 11]: 8/15
% Cured [2, 11]: 53%
# Cured/Total [2, 12]: 4/5
% Cured [2, 12]: 80%
% effective ([2]; single doses of 5 or 10 mg/kg): ~ 50%
activity in the acute (short term) EATRO 110 model, in words ([2]; text summary): less active than 9-DINO and Formycin B

Reference: patent publication US4914086A, “Method for treating African human and veterinary trypanosomiases” (priority 1987, dated 1990)
